Experimental data from US6413956B1, “Substituted 4-oxo-quinoline-3-carboxamides” (Neurogen Corporation, priority 1999, dated 2002).

Row | SMILES | melting point
1 | CCCCCCNC(=O)c1c[nH]c2ccc(OCC)cc2c1=O [compound 57, N-Hexyl 6-ethoxy-4-oxo-1,4-dihydro-quinoline-3-carboxamide] | 181 to 182 °C
2 | CCOc1ccc2[nH]cc(C(=O)NCc3ccccn3)c(=O)c2c1 [compound 51, N-[(2-Pyridyl)methyl] 6-ethoxy-4-oxo-1,4-dihydro-quinoline-3-carboxamide] | 221 to 222 °C
3 | Cc1nc(Cc2ccc(CNC(=O)c3c[nH]c4ccc(F)cc4c3=O)cc2)c[nH]1.Cl | 120 to 122 °C
4 | O=C(NCc1ccc(F)cc1)c1c[nH]c2ccc(Cl)cc2c1=O [compound 73, N-4-Fluorobenzyl 6-chloro-4-oxo-1,4-dihydroquinoline-3-carboxamide] | 273 to 276 °C
5 | CCOc1ccc(CNC(=O)c2c[nH]c3ccccc3c2=O)cc1 [compound 16, N-(4-Ethoxybenzyl) 4-oxo-1,4-dihydro-quinoline-3-carboxamide] | 203 to 205 °C
6 | CCOc1ccc2[nH]cc(C(=O)NCc3ccc(Cn4ccnc4)cc3)c(=O)c2c1 [compound 66, N-[4-[(1-Imidazolyl)methyl]benzyl} 6-ethoxy-4-oxo-1,4-dihydro-quinoline-3-carboxamide] | 161 to 165 °C
7 | O=C(NCc1cccs1)c1c[nH]c2ccccc2c1=O [compound 13, N-[(2-Thienyl)methyl] 4-oxo-1,4-dihydro-quinoline-3-carboxamide] | 235 to 240 °C
8 | CCNCc1ccc(CNC(=O)c2c[nH]c3ccccc3c2=O)cc1.Cl | 252 °C (dec.)
9 | CCOc1ccc2[nH]cc(C(=O)NCc3ccsc3)c(=O)c2c1 [compound 59, N-[(3-Thienyl)methyl] 6-ethoxy-4-oxo-1,4-dihydro-quinoline-3-carboxamide] | 203 to 205 °C
10 | O=C(NCc1ccccc1)c1c[nH]c2ccccc2c1=O [compound 5, N-Benzyl 4-oxo-1,4-dihydro-quinoline-3-carboxamide] | 173 °C
11 | CCOc1ccc2[nH]cc(C(=O)NCCCOC(C)C)c(=O)c2c1 [compound 43, N-[(3-Isopropoxy)propyl] 6-ethoxy-4-oxo-1,4-dihydro-quinoline-3-carboxamide] | 163 to 164 °C
12 | CCOc1ccc2[nH]cc(C(=O)NCc3cccc(CN4CCOCC4)c3)c(=O)c2c1 [compound 117, N-[3-(4-Morpholinylmethyl)benzyl]-6-ethoxy-4-oxo-1,4-dihydroquinoline-3-carboxamide] | 173 to 177 °C
13 | CCCCNC(=O)c1c[nH]c2ccc(COC)cc2c1=O [compound 34, N-Butyl 6-methoxymethyl-4-oxo-1,4-dihydro-quinoline-3-carboxamide] | 157 to 159 °C
14 | CCCCNC(=O)c1c[nH]c2ccc(OCC)cc2c1=O [compound 53, N-Butyl 6-ethoxy-4-oxo-1,4-dihydro-quinoline-3-carboxamide] | 190 to 191 °C
15 | COc1ccc(CNC(=O)c2c[nH]c3ccccc3c2=O)cc1OC [compound 12, N-(3,4-Dimethoxybenzyl) 4-oxo-1,4-dihydro-quinoline-3-carboxamide] | 211 to 212 °C
16 | CCOc1ccc2[nH]cc(C(=O)NC3CCCCC3)c(=O)c2c1 [compound 46, N-Cyclohexyl 6-ethoxy-4-oxo-1,4-dihydro-quinoline-3-carboxamide] | 191 to 193 °C
17 | CCOc1ccc2[nH]cc(C(=O)NC)c(=O)c2c1 [compound 58, N-Methyl 6-ethoxy-4-oxo-1,4-dihydro-quinoline-3-carboxamide] | 279 to 281 °C
18 | CCCCNC(=O)c1c[nH]c2c(F)cccc2c1=O.Cl | 205 to 207 °C
19 | CCOc1ccc2[nH]cc(C(=O)NCc3ccc(CN(C)C)cc3)c(=O)c2c1.Cl | 222 to 225 °C (dec.)
20 | CCOCCCNC(=O)c1c[nH]c2ccc(OCC)cc2c1=O [compound 42, N-[(3-Ethoxy)propyl] 6-ethoxy-4-oxo-1,4-dihydro-quinoline-3-carboxamide] | 179 to 181 °C
21 | CCOc1ccc2[nH]cc(C(=O)NCc3ccc(CN(CC)Cc4ccccc4)cc3)c(=O)c2c1 [compound 97, N-{4-[(N-Benzyl-N-ethylamino)methyl]benzyl} 6-ethoxy-4-oxo-1,4-dihydroquinoline-3-carboxamide] | 129 to 132 °C
22 | CCNCc1cccc(CNC(=O)c2c[nH]c3ccc(Cl)cc3c2=O)c1 [compound 28, N-[3-(Ethylaminomethyl)benzyl] 6-chloro-4-oxo-1,4-dihydro-quinoline-3-carboxamide] | 148 °C (dec.)
23 | O=C(NCc1ccc2c(c1)OCO2)c1c[nH]c2ccccc2c1=O [compound 11, N-Piperonyl 4-oxo-1,4-dihydro-quinoline-3-carboxamide] | 207 °C
24 | CCOc1ccc2[nH]cc(C(=O)NCc3ccc4c(c3)OCO4)c(=O)c2c1 [compound 47, N-Piperonyl 6-ethoxy-4-oxo-1,4-dihydro-quinoline-3-carboxamide] | 226 to 228 °C
25 | CCOc1ccc2[nH]cc(C(=O)NCC(C)C)c(=O)c2c1 [compound 56, N-[(2-Methyl)propyl] 6-ethoxy-4-oxo-1,4-dihydro-quinoline-3-carboxamide] | 214 to 216 °C

Row | SMILES | melting point
26 | CCOc1ccc2[nH]cc(C(=O)NCc3ccc(CN(C)Cc4ccccc4)cc3)c(=O)c2c1 [compound 98, N-{4-[(N-Benzyl-N-methylamino)methyl]benzyl} 6-ethoxy-4-oxo-1,4-dihydroquinoline-3-carboxamide] | 129 to 131 °C
27 | COCc1ccc2[nH]cc(C(=O)NCc3ccccc3)c(=O)c2c1 [compound 31, N-Benzyl 6-methoxymethyl-4-oxo-1,4-dihydro-quinoline-3-carboxamide] | 195 to 196 °C
28 | CCCCCNC(=O)c1c[nH]c2ccc(OCC)cc2c1=O [compound 54, N-Pentyl 6-ethoxy-4-oxo-1,4-dihydro-quinoline-3-carboxamide] | 180 to 183 °C
29 | O=C(NCc1ccco1)c1c[nH]c2ccccc2c1=O [compound 9, N-[(2-Furanyl)methyl] 4-oxo-1,4-dihydro-quinoline-3-carboxamide] | 193 to 195 °C
30 | CCOc1ccc2[nH]cc(C(=O)NCc3ccc(CNCCN4CCOCC4)cc3)c(=O)c2c1 [compound 83, N-{4-[[2-(4-Morpholinyl)ethyl]aminomethyl]benzyl} 6-ethoxy-4-oxo-1,4-dihydro-quinoline-3-carboxamide] | 123 to 127 °C
31 | COCc1ccc2[nH]cc(C(=O)NCc3cccs3)c(=O)c2c1 [compound 32, N-[(2-Thienyl)methyl] 6-methoxymethyl-4-oxo-1,4-dihydro-quinoline-3-carboxamide] | 225 to 226 °C
32 | CCOCCCNC(=O)c1c[nH]c2ccccc2c1=O [compound 17, N-(3-Ethoxypropyl) 4-oxo-1,4-dihydro-quinoline-3-carboxamide] | 141 to 142 °C
33 | O=C(NCC1CCCO1)c1c[nH]c2ccccc2c1=O (stereo not shown) [compound 1, N-tetrahydrofurfuryl 4-oxo-1,4-dihydro-quinoline-3-carboxamide] | 205 to 209 °C
34 | CCOc1ccc2[nH]cc(C(=O)NCc3ccc(CN(C)CCc4ccccc4)cc3)c(=O)c2c1 [compound 99, N-{4-[(N-Methyl-N-phenethylamino)methyl]benzyl} 6-ethoxy-4-oxo-1,4-dihydroquinoline-3-carboxamide] | 137 to 139 °C
35 | O=C(NCc1ccc(F)cc1)c1c[nH]c2ccccc2c1=O [compound 8, N-(4-Fluorobenzyl) 4-oxo-1,4-dihydro-quinoline-3-carboxamide] | 213 to 215 °C
36 | CCOc1ccc2[nH]cc(C(=O)NCC3CCCO3)c(=O)c2c1 (stereo not shown) [compound 44, N-[(2-Tetrahydrofuranyl)methyl] 6-ethoxy-4-oxo-1,4-dihydro-quinoline-3-carboxamide] | 181 to 182 °C
37 | CCOc1ccc2[nH]cc(C(=O)NCc3ccccc3F)c(=O)c2c1 [compound 49, N-(2-Fluorobenzyl) 6-ethoxy-4-oxo-1,4-dihydro-quinoline-3-carboxamide] | 237 to 238 °C
38 | CCOc1ccc2[nH]cc(C(=O)NCCCOC)c(=O)c2c1 [compound 48, N-[(3-Methoxy)propyl] 6-ethoxy-4-oxo-1,4-dihydro-quinoline-3-carboxamide] | 175 to 177 °C
39 | CCOc1ccc2[nH]cc(C(=O)NCc3ccc(CN4CCCC4)cc3)c(=O)c2c1 [compound 103, N-{4-[(1-Pyrrolidinyl)methyl]benzyl} 6-ethoxy-4-oxo-1,4-dihydroquinoline-3-carboxamide] | 168 to 171 °C
40 | CN(C)Cc1cccc(CNC(=O)c2c[nH]c3ccc(Cl)cc3c2=O)c1.Cl | 178 °C (dec.)
41 | CCOc1ccc2[nH]cc(C(=O)NCc3cccnc3)c(=O)c2c1 [compound 52, N-[(3-Pyridyl)methyl] 6-ethoxy-4-oxo-1,4-dihydro-quinoline-3-carboxamide] | 222 to 224 °C
42 | CCOc1ccc2[nH]cc(C(=O)NCc3ccccc3)c(=O)c2c1 [compound 39, N-Benzyl 6-ethoxy-4-oxo-1,4-dihydro-quinoline-3-carboxamide] | 209 to 211 °C
43 | CNC(C)c1cccc(CNC(=O)c2c[nH]c3ccc(Cl)cc3c2=O)c1.Cl (stereo not shown) | 184 °C (dec.)
44 | Cl.O=C(NCc1ccccc1)c1c[nH]c2c(F)cccc2c1=O | 235 to 237 °C
45 | CCCNC(=O)c1c[nH]c2ccc(OCC)cc2c1=O [compound 55, N-Propyl 6-ethoxy-4-oxo-1,4-dihydro-quinoline-3-carboxamide] | 219 to 221 °C
46 | CCOc1ccc2[nH]cc(C(=O)NCc3cccc(CN(C)Cc4ccccc4)c3)c(=O)c2c1 [compound 108, N-{3-[(N-Benzyl-N-methylamino)methyl]benzyl}-6-ethoxy-4-oxo-1,4-dihydroquinoline-3-carboxamide] | 144 to 146 °C
47 | CN(C)Cc1ccc(CNC(=O)c2c[nH]c3ccc(Cl)cc3c2=O)cc1.Cl | 198 °C (dec.)
48 | COCc1ccc2[nH]cc(C(=O)NCc3cccc(CN4CCOCC4)c3)c(=O)c2c1 [compound 105, N-{3-[(4-Morpholinyl)methyl]benzyl} 6-methoxymethyl-4-oxo-1,4-dihydroquinoline-3-carboxamide] | 151 to 153 °C
49 | Cl.O=C(NCc1ccc(CN2CCOCC2)cc1)c1c[nH]c2ccccc2c1=O | 177 to 180 °C
